Assay results published in US9607202B2, “Methods of generating trophectoderm and neurectoderm from human embryonic stem cells” (UNIVERSITY OF PITTSBURGH—OF THE COMMONWEALTH SYSTEM OF …, priority 2009, dated 2017).

Columns and labels:
hESCs [1] = assay: hESC viability and OCT4 expression in minimal induction media; type: cell-based, human
Description: Thus, to maintain compatibility with StemPro-cultured hESC, a DMEM/F12-based minimal induction media (MIM, Table 1) was developed by testing short-term hESC viability (FIG. 7) and OCT4 expression (FIG. 2) after systematically reintroducing cell survival, but not pluripotency, components.
One criterion for derivation of a minimal induction media was that hESCs would be viable and continue to express the OCT4 pluripotency marker. […] A second criterion for the derivation of a minimal induction media was that hESC would remain competent to differentiate.

hESCs (line UCO6 (HSF6)) = assay: Neuronal differentiation of hESCs on different surfaces; type: cell-based, human
Description: (§1) All coverslips (Fisher scientific, Pittsburgh, Pa.) were adhered onto the bottom of 24-well plate with Kwik Sil (World Precision Instruments, Inc., Sarasota, Fla.). Before cell seeding, the surface of coverslips were sterilized under UV for 30 min, and then immersed into PBS for 30 min. Laminin (BD Biosciences, San Jose, Calif.) coated glass coverslips were also prepared as control substrates for cell culture.
hESCs, line HSF6 obtained from the University of California-San Francisco and WiCell, respectively were approved by the University of Pittsburgh ESCRO committee with IRB exempt approval. hESCs were maintained in ES-DMEM high glucose with 20% KSR, 1% MEM NEAA (WiCell Research Institute, Madison, Wis.), Pen/Strep (10,000 U/10,000 ug), 1% L-Glutamine (2 mM), and 8 ng/mL bFGF (Invitrogen, Carlsbad, Calif.), and passaged in 50-100 cell clusters as recommended. hESCs were grown on mitomycin-treated MEFs prepared from 14-day CF-1 embryos. Media was changed every other day and colonies were mechanically passaged every […] with a Pasteur pipette. […]
(§2) Neuronal differentiation was detected by anti-βIII tubulin for hESCs, anti-NF200 for rNSCs. […]

rNSCs = assay: Neuronal differentiation of rNSCs cultured on different surfaces; type: cell-based, rat
Description: as §1, with “culture. […]” for “culture.”
as §2
For rNSCs, neuronal cells (NF200 positive) were counted on the whole coverslips and averaged values across all coverslips were presented as mean±SD. Total cell number was calculated from the number of nuclei. Cell nuclei were counted on ten randomly selected images, averaged, divided by image area and then multiplied by the area of coverslip. […] Cell density was calculated by dividing values of cell number by the image area. Neurite length was measured using Image J and plug-in Neuron J. Length of the primary neurite and all neurites of each cell in each group was measured by tracing the neurites of NF200 positive cells with the tracing algorithm contained in Neuron J. Primary neurite was defined as the longest process out of cell body. […]

[2] = tested on: pluripotent hESCs, line H7; assay: TE-induction and lineage selectivity of hESCs by transcription factor immunostaining (CDX2, brachyury, GATA6, OCT4); type: cell-based, human
Description: Pluripotent hESCs, line H7, were grown on mitomycin-treated MEFs (GlobalStem) at normal-density (120,000 cells/6 cm^2), maintained in DSR media (Table 1), and passaged weekly using Collagenase IV (Invitrogen/Gibco) and StemPro®EZPassage™ (Invitrogen) as directed. Cell colonies were briefly spun, resuspended in DSR, and plated onto normal density MEFs in CM (Table1). For TE-directed differentiation, hESCs were passaged at 1:5 dilution onto low-density MEFs (30,000 cells/6 cm^2) using DSR media minus FGF2 supplemented with BMP4 (Invitrogen, PHC7914) 100 ng/mL. Media was changed daily.
Feeder-free hESCs were grown on Geltrex (Invitrogen)-coated plates in StemPro (Invitrogen), passaged weekly with Collagenase IV or Accutase (StemCell Technologies) as directed, resuspended in StemPro and plated onto Geltrex-coated plates. For TE-directed differentiation pluripotent hESCs maintained in StemPro or in Erb's Minimal Induction Media (EMIM) were passaged onto feeder-free, Geltrex-coated plates into respective basal media supplemented with the activin A antagonist, SB431542 (10 uM), and/or BMP4 (100 ng/mL or 500 ng/mL) as indicated. Media was changed daily. Terminal STB differentiation was accomplished by culturing hESCs in EMIM+SB+100 ng/mL BMP4 for 14 days.
In PBS, cell colonies were fixed with 2% paraformaldehyde, permeabilized with 1% Triton X-100 (Sigma, St. Louis Mo.), and non-specific antibody binding blocked with 10% goat serum. Primary antibodies (Table 2) were diluted in 1% goat serum, spun briefly, and incubated overnight at 37° C. After a wash in PBS-Tween 0.05% a species-specific fluorescent secondary antibody (prepared as above) was added for 60 min at 37° C. Cells were washed in PBS-Tween 0.05%, incubated in Hoechst […] (1:10,000), and mounted in Gelvatol polyvinyl alcohol-based media (Sammak et al., 1987).
Nuclear labeling (Hoechst 33342) facilitates automated image segmentation for counting cell number. Since pluripotent hESCs can differentiate along multiple lineages, TE-differentiation was determined by immunostaining for transcription factors localized to the cell's nucleus or cytoplasm (Table 2). Four color microscopy permits co-labeling of cells with markers of pluripotent hESCs (OCT4), TE cells (CDX2), and alternative markers for early differentiation including neurectoderm (nestin), mesoderm (brachyury), or extraembryonic endoderm
(GATA6). TE-induction was determined by two criteria: 1) the percentage of all cells that were CDX2-positive and the fold change of CDX2-nuclear intensity over control, unstimulated cells. […] TE selectivity was determined by a significant percentage of CDX2-positive cells and a suppression of the percentage of nestin-, brachyury-, and GATA6-positive cells.
96-well Microplates were scanned using the 5 or 10× objective on the ArrayScan V Automated image analysis was performed using the Compartmental Analysis BioApplication using Hoechst for identification of nuclei and various transcription factor antibodies (Table 2). Nuclear-specific fluorescence intensity was determined from approximately 300 single cells per well from 3-6 independent wells to produce a well-average nuclear intensity for each measurement Mean and standard deviation were calculated from multiple wells. Fold change of the mean intensities were normalized against matched unstimulated external controls, usually the pluripotent condition, to divide out differences due to efficiency of antibody-antigen binding and chromophore quantum yield. […] Select conditions are additionally compared in bar graph format to show standard deviations and T-tests.

hESCs [3] = assay: Terminal differentiation to syncytia (percentage of bi- or multi-nucleated cells); type: cell-based, human; conditions: neurectoderm culture conditions induced by noggin
hESC = assay: Neurectoderm differentiation from hESCs in noggin media; type: cell-based, human; conditions: small colonies from StemPro
Description: There are several laboratories that have applied the BMP4 antagonist noggin for differentiation of hESC to neurectoderm or neural stem cells (Ying, Stavridis et al. 2003; Gerrard, Rodgers et al. 2005; Yao, Chen et al. 2006; Cohen, Itsykson et al. 2007). Here, small colonies grown in StemPro are used as the starting material. Cells were plated in StemPro media or neural differentiation media (DMEM/F12 media supplemented with N2/B27). After each day of growth, colonies with the smallest colonies were changed into Noggin media. When colonies grown in noggin had differentiated along a neurectoderm lineage, the cells were fixed for immunostaining. If the colonies had not differentiated, the media was changed and the cells remained in Noggin media for another day. The process was repeated each day for 6-7 days. Cells were immunostained with the following antibodies: Pax6 mouse (Santa Cruz), Otx2 rabbit (Abeam), Nestin mouse (Covance), Alexa 488 goat anti mouse green, Cy3 goat anti rabbit red, Cy5 goat anti mouse far red.

[4] = short-term treatment in StemPro (SB or low-dose BMP4 alone)

heparin
hESC viability (hESCs [1]; basal media once BMP4 was supplemented): improve hESC viability

OCCS [β-mercaptoethanol]
hESC survival (hESCs [1]; addition to minimal induction media with or without heparin): reduced hESC survival

laminin
number of cells per colony (hESCs (line UCO6 (HSF6)); end of the second week (14 days)): indistinguishable | adhesion and spreading of hESC embryoid bodies/colonies (hESCs (line UCO6 (HSF6)); feeder-free, within the first week): adhered | percentage of neurons (NF200 positive cells) (rNSCs; 7 d): higher percentage of neurons | percentage of neurons (NF200 positive cells) (rNSCs; 14 d): higher percentage of neurons

NC(=O)c1ccc(-c2nc(-c3ccc4c(c3)OCO4)c(-c3ccccn3)[nH]2)cc1 [SB, SB431542]
brachyury expression [2, 4]: significant increase in brachyury expression

BMP4: bone morphogenic protein (BMP4), TGFβ superfamily member
fraction of cell population induced to non-TE lineages ([2]; 100 ng/mL BMP4 in MIM): over half of the cell population | TE-induction efficiency as frequency of CDX2 staining ([2]; BMP4, monolayer colonies, DSR/MEF culture (low density MEFs minus FGF2), 7 days): 3.6% | TE-induction efficiency as frequency of CDX2 staining ([2]; BMP4, multilayer colonies, DSR/MEF culture, 7 days): 44.4% | increase in percent brachyury (T) positive cells ([2]; BMP4 added to StemPro for 48 hours): 6 fold | CDX2 induction ([2]; BMP4 alone 500 ng/mL in EMIM, day 2): Significant CDX2 induction | extraembryonic endoderm (GATA6) positive cells ([2]; BMP4 in MIM): ~20% | mesoderm (brachyury) positive cells ([2]; BMP4 in MIM): over 40% | OCT4 expression ([2]; BMP4 supplementation on low density MEFs): decreased OCT4 expression | CDX2 expression ([2]; BMP4 supplementation to EMIM, culture day 7): induced diffuse CDX2 expression | GATA6 over MIM alone ([2]; BMP4 supplementation to MIM): did not increase | brachyury over MIM alone ([2]; BMP4 supplementation to MIM): did not increase | fold induction of CDX2 over MIM alone ([2]; BMP4 supplementation to MIM): significantly increased | TE-induction efficiency as frequency of CDX2 staining ([2]; StemPro containing BMP4, MEF-free, 4 days): 93.7% | brachyury expression ([2]; addition of BMP4 to StemPro): dose-dependent, statistically significant increase | brachyury expression [2, 4]: significant increase in brachyury expression

B1: noggin: BMP4 antagonist protein; mouse recombinant noggin (protein, UniProt P97466 28-232, looked up)
Noggin: QHYLHIRPAPSDNLPLVDLIEHPDPIFDPKEKDLNETLLRSLLGGHYDPGFMATSPPEDRPGGGGGPAGGAEDLAELDQLLRQRPSGAMPSEIKGLEFSEGLAQGKKQRLSKKLRRKLQMWLWSQTFCPVLYAWNDLGSRFWPRYVKVGSCFSKRSCSVPEGMVCKPSKSVHLTVLRWRCQRRGGQRCGWIPIQYPIISECKCSC
multinucleated cells (hESCs [3]): absent | efficiency of producing Nestin-positive cells (hESC): ~100% | time to produce Nestin-positive cells (hESC): 3 to 7 days
